Test results: publication PMC6934184, “Selective DNA-PKcs inhibition extends the therapeutic index of localized radiotherapy and chemotherapy” (The Journal of Clinical Investigation, 2019)

Molecular target: T1, CLK1 (Homo sapiens, UniProt P49759)
T1 construct: purchased Thermo Fisher Scientific (Life Technologies) SelectScreen
Test: SelectScreen Z'LYTE
Type: biochemical
Method in brief: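 SelectScreen broad panel; activity (Z'LYTE, Adapta) plus binding formats. ATP: Km app for CSF1R Z'LYTE; 10 for CAMK1 Adapta. Readout = % per kinase.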

T1 sequence (P49759 whole entry): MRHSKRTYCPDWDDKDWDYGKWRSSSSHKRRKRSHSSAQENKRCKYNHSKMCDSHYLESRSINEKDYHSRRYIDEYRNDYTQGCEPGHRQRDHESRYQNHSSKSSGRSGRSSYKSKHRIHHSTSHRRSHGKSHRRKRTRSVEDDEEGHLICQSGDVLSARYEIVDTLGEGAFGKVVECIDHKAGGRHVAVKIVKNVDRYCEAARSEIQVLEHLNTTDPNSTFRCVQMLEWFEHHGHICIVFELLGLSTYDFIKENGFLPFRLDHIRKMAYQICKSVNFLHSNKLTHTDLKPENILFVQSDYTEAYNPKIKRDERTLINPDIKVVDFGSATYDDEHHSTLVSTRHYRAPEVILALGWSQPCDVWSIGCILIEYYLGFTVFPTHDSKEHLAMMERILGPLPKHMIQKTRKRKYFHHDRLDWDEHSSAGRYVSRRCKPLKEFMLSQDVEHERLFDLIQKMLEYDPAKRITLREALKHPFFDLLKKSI

CN(C(=O)CN1CCOCC1)c1ccc2sc3c(-c4cccc5c(=O)cc(N6CC7CCC(C6)O7)oc45)cccc3c2c1 [NU5455]
inhibition at 1 µM: 11.7%
